# In patent publication US20230364057A1, “BACTERIAL DNA GYRASE INHIBITORS AND METHODS OF USE THEREOF” (THE FLORIDA INTERNATIONAL UNIVERSITY BOARD OF TRUSTEES, priority 2022, published 2023):
# Values joined by “and” are separate entries in the source; they are usually repeats but may differ in a detail not shown here. Equal values may be shown once. Read-outs that look alike come from different tables or passages of the source.
# Legend:
# [1] = molecular target: T1, E. coli DNA gyrase (Escherichia coli (strain K12), UniProt P0AES4+P0AES6); experiment: Agarose gel-based DNA gyrase inhibition assay; format: biochemical
# Method: 100 ng of DNA gyrase was used to supercoil the rx pAB1 in the presence of different concentrations of a gyrase inhibitor. […] Samples were analyzed by electrophoresis in 1% w/v agarose gels followed by ethidium bromide staining and photographed under UV light.
# [2] = molecular target: T1, E. coli DNA gyrase; experiment: SDFQ-based DNA gyrase inhibition assay; format: biochemical; conditions: Table 8; read-out: IC50 Gyrase SDFQ
# Method: 100 ng of DNA gyrase was used to supercoil the rx pAB1_FL905 in the presence of different concentrations of a gyrase inhibitor. […] The IC50 values were estimated by nonlinear fitting of the following equation: […]
# where F is the fluorescence intensity at the x concentration of an min inhibitor. Fmax and Fmin are the maximum and minimum fluorescence of the DNA sample, respectively. P is a slope parameter.
# [3] = molecular target: T2, E. coli DNA topoisomerase IV (Escherichia coli (strain K12), UniProt P0AFI2+P20083); experiment: E. coli DNA topoisomerase IV relaxation assay (gel-based); format: biochemical; conditions: IC50 Topoisomerase IV Gel-based, Table 8
# Method: (§1) Relaxation assays by E. coli DNA topoisomerase IV and the ATPase assays were performed. […] Lane 1 is supercoiled plasmid pAB1. […] The supercoiled, fluorescently-labeled plasmid pAB1_FL905 was used.
# [4] = molecular target: T2, E. coli DNA topoisomerase IV; experiment: SDFQ-based DNA relaxation assay with E. coli DNA topoisomerase IV; format: biochemical
# Method: as §1
# [5] = test system: E. coli imp; experiment: microbe, parasite or virus in culture; conditions: Escherichia coli, read-out: MIC E. coli imp BAS3023
# [6] = test system: E. coli (ATCC 25922); experiment: Minimum inhibitory concentration, broth microdilution; conditions: Escherichia coli, ATCC25922, read-out: MIC E coli ATCC 25922, Table 9
# Method: Antibacterial minimum inhibitory concentrations (MICs) were obtained from three independent experiments using broth microdilution methods in 96-well plates according to Clinical and Laboratory Standards Institute guidelines. Cells were culture from singles colonies in MHIIB medium for 24 h at 37° C. in agitation (200 RPM). The cultures were then diluted using the same media to reach an OD600 of 0.1. Then, 50 µL of the diluted cultures were added to the plates holding 50 µL of serially diluted compounds in MHIIB. The plates were incubated at 37° C. for 20 h. The starting inoculum was fixated to 10^5 colony-forming units per ml.
# [7] = test system: S. aureus (ATCC 14775); experiment: as above; conditions: Staphylococcus aureus
# [8] = test system: MRSA; experiment: as above; conditions: Staphylococcus aureus
# [9] = test system: B. subtilis (ATCC 6633); experiment: as above; conditions: Bacillus subtilis
# [10] = molecular target: T1, E. coli DNA gyrase; experiment: biochemical; format: biochemical
# [11] = molecular target: T1, E. coli DNA gyrase; experiment: E. coli DNA gyrase ATPase assay; format: biochemical
# Method: E. coli DNA gyrase ATPase assays were performed in 60 µL of 1 ×gyrase ATPase buffer (10 mM Tris.HCl (pH 7.5), 0.2 mM EDTA, 1 mM magnesium chloride, 1 mM DTT, and 2% (w/v) glycerol) containing 50 nM E. coli DNA gyrase, 200 ng rx pAB1, 0.8 mM Phosphoenol pyruvate, 1.2 units of Pyruvate kinase, 1.7 units of lactate dehydrogenase, and 0.4 mM of NADH at 37° C. After the reaction mixtures are incubated on ice for 5 minutes, 2 mM of ATP is added to initiate the reaction. Absorbance at OD340nm is monitored for up to 30 minutes at 37° C. in a spectrophotometer.
# [12] = molecular target: Mtb DNA gyrase (Mycobacterium tuberculosis (strain ATCC 25618 / H37Rv), UniProt P9WG45+P9WG47); experiment: Mtb DNA gyrase inhibition assay (gel-based); format: biochemical; conditions: Table 5, Mtb gyrase; read-out: IC50 (µM) Mtb
# Method: The IC50 against E. coli (A) and Mtb (C) gyrase were determined using the gel-based gyrase inhibition assays. The gyrase mediated DNA cleavage assays (B and D) were performed using pBR322. (A) 229 inhibits E. coli gyrase. Lane 1, rx pAB1. […] Lane 1, rx pAB1. […] 100 µM of CPDs were used. Symbols rx, nk, In, and sc represent relaxed, nicked, linear, and supercoiled DNA, respectively.
# Agarose gel-based DNA gyrase inhibition assays were performed in 30 µL of 1 ×gyrase buffer (35 mM Tris-HCl, 24 mM KCl, 4 mM MgCl2, 2 mM DTT, 1.75 mM ATP, 0.1 mg/mL BSA, 6.5% glycerol, pH7.5) containing 400 ng of rx pAB1 at 37° C. 100 ng of DNA gyrase was used to supercoil the rx pAB1 in the presence of different concentrations of a gyrase inhibitor. After 15 minutes of incubation with the inhibitor at 37° C., all reactions were stopped with 1 µL of stop solution (3% SDS and 250 mM EDTA). Samples were analyzed by electrophoresis in 1% w/v agarose gels followed by ethidium bromide staining and photographed under UV light.
# [13] = test system: Mtb; experiment: Mtb whole cell assay (% inhibition, MIC); format: cell-based, Mycobacterium tuberculosis; conditions: Mycobacterium tuberculosis; Table 5 (same values in Table 6 at 20 µM)
# [14] = in vitro; conditions: mouse
# [15] = in vitro; conditions: human
# [16] = molecular target: T1, E. coli DNA gyrase; experiment: DNA gyrase mediated DNA cleavage assay; format: biochemical; conditions: pBR322
# Method: 250 ng of supercoiled pBR322 plasmid were incubated with 50 nM of E. coli DNA gyrase in reactions containing 35 mM Tris-HCl, 24 mM KCl, 4 mM MgCl2, 2 mM DTT, 0.1 mg/mL BSA, 6.5% glycerol, and 1.75 mM ATP, in presence of 200 µM of compounds, at 37° C. for 15 min. Then, 0.2% (w/v) of SDS and 0.1 mg/mL proteinase K were added, and samples were incubated at 37° C. for 1 h. […] Samples were examined by electrophoresis in 1% w/v agarose gel containing 0.5 µg/mL ethidium bromide and photographed under UV light.
# [17] = ATCC14775, read-out: Minimum Inhibitory Concentration S.aureus
# [18] = MRSA, read-out: Minimum Inhibitory Concentration S.aureus MRSA
# [19] = ATCC6633, read-out: Minimum Inhibitory Concentration B.subtilis
# T2 sequence (P0AFI2 whole entry, looked up): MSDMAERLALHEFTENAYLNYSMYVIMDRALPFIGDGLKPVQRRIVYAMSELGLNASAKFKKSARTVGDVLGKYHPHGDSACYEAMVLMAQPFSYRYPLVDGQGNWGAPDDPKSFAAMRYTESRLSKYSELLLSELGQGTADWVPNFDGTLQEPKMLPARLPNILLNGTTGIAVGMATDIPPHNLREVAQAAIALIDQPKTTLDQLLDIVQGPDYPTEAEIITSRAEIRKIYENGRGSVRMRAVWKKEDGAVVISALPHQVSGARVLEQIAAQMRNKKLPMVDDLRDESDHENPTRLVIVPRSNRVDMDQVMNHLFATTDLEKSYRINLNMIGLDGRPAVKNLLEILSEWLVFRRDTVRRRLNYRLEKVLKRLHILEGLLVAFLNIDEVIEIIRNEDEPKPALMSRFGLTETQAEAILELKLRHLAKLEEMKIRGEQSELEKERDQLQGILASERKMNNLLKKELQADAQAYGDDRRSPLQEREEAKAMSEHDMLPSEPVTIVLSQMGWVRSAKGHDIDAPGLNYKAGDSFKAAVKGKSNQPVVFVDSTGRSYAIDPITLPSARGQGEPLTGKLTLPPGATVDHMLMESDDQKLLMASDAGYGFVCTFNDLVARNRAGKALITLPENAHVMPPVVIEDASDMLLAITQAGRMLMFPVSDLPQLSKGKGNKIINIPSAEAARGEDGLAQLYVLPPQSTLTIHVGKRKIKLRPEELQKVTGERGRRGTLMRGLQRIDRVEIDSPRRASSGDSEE
# T2 sequence (P20083 whole entry, looked up): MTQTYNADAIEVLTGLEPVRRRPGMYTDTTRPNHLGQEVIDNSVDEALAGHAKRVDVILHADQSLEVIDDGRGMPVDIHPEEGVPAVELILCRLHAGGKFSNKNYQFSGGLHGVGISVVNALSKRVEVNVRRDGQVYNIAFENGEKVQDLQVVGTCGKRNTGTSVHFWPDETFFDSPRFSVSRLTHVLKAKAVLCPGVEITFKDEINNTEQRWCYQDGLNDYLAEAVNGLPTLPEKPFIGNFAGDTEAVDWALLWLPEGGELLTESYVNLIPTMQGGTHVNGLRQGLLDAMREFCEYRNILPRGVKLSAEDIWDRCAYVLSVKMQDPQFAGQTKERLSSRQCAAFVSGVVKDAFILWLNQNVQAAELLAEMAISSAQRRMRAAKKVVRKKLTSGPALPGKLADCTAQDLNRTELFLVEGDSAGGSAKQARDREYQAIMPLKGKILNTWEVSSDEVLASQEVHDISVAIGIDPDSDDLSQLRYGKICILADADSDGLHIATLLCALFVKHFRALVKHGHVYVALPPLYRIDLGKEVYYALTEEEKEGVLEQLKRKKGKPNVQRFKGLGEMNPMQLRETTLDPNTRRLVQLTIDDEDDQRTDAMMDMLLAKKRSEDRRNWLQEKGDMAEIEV
structure (smiles),measurement,setting,value
"CCCCOC(=O)c1cc(O)c(O)c(O)c1 [Butyl gallate, butyl gallate]",IC50,"[1]; Table 8, read-out: IC50 Gyrase Gel-based",> 100 µM
same,IC50,[2],> 100 µM
same,IC50,[3],> 100 µM
same,IC50,[4],> 100 µM
same,MIC,[5],> 200 µM
same,MIC,[6],> 200 µM
same,MIC,"[7]; ATCC14775, read-out: MIC S. aureus ATCC 14775",> 200 µM
same,MIC,"[8]; ATCC33591 / MRSA, read-out: MIC MRSA ATCC 33591",> 200 µM
same,MIC,"[9]; ATCC6633, read-out: MIC B. subtilis ATCC 6633",> 64 µg/mL and > 200 µM
Cc1c(CCC(=O)O)c(=O)oc2c(C)c3occ(-c4ccc(Br)cc4)c3cc12 [Compound 48],inhibition of E. coli DNA gyrase activities,[1]; 50 µM of compounds,completely inhibited
same,inhibition of E. coli DNA gyrase activities,[1]; 200 µM of compounds,completely inhibited
same,inhibition of E. coli DNA gyrase activities,[10],potent bacterial DNA gyrase inhibitors
same,IC50,"[10]; Table 5, E. coli gyrase, read-out: IC50 (µM) EC",4.2 µM
same,Ki,[11],0.15 µM
same,inhibition of the ATPase activities of E. coli DNA gyrase,[11]; AB-MECA and gallates at 100 µM,ATP competitive inhibitor
same,IC50,[12],57 µM
same,inhibition at 20 µM,[13],38.6%
same,MIC,"[7]; ATCC14775, read-out: MIC (µM) SA",3.1 µM
same,MIC,[7]; [17],3.12 µM
same,MIC,"[8]; MRSA, read-out: MIC (µM) MRSA",3.1 µM
same,MIC,[8]; [18],3.12 µM
O=C(O)c1ccc(/N=N/C2C(O)=Nc3ccc(F)cc32)cc1 (stereo not shown) [Compound 127],inhibition of E. coli DNA gyrase activities,[1]; 50 µM of compounds,completely inhibited
same,IC50,[14],> 200 µM
same,IC50,[15],> 200 µM
same,MIC,[7]; [17],50 µM
same,MIC,[8]; [18],50 µM
same,MIC,[9]; [19],25 µM
Cc1cccc2c1N=C(O)C2/N=N/c1ccc(C(=O)O)cc1 (stereo not shown) [Compound 128],inhibition of E. coli DNA gyrase activities,[1]; 50 µM of compounds,completely inhibited
same,IC50,[14],> 200 µM
same,IC50,[15],> 200 µM
same,MIC,[7]; [17],50 µM
same,MIC,[8]; [18],50 µM
same,MIC,[9]; [19],25 µM
"O=C(O)CCNc1ccc(NCCC(=O)O)c2c1C(=O)c1ccccc1C2=O [Compound 173, 3-({4-[(2-carboxyethyl)amino]-9,10-dioxo-9,10-dihydroanthracen-1-yl}amino)propanoic acid]",inhibition of E. coli DNA gyrase activities,[1]; 50 µM of compounds,completely inhibited
same,IC50,"[10]; IC50 (15-[…] µM), bin of Table 2",15 to 25 µM
same,E. coli DNA gyrase-mediated DNA breaks and nicking,[16],cause DNA nicking
same,MIC,[8]; [18],100 µM
CCN(CC)c1ccc(C=C2SC(=S)NC2=O)cc1 [Compound 212],inhibition of E. coli DNA gyrase activities,[1]; 50 µM of compounds,completely inhibited
same,inhibition of E. coli DNA gyrase activities,[1]; 200 µM of compounds,completely inhibited
same,IC50,"[10]; IC50 ([…]-50 µM), bin of Table 2",25 to 50 µM
same,IC50,[14],> 200 µM
same,IC50,[15],> 200 µM
"O=C1C=C(NCCc2cc(Br)c(O)c(Br)c2)C(=O)c2ncccc21 [Compound 232, 7-((2-(3,5-Dibromo-4-hydroxyphenyl)ethyl)amino)-5,8-quinolinedione]",inhibition of E. coli DNA gyrase activities,[1]; 50 µM of compounds,inhibited
same,inhibition of E. coli DNA gyrase activities,[1]; 200 µM of compounds,completely inhibited
same,IC50,"[10]; IC50 (50-200 µM), bin of Table 2",50 to 200 µM
same,E. coli DNA gyrase-mediated DNA breaks and nicking,[16],cause DNA nicking
